What was measured:
[1] = system: liver dysfunction (hepatitis) induced by D-galactosamine; assay: Experiment I: effect on the liver dysfunction (hepatitis) induced by D-galactosamine, test compound administered into the abdominal cavity; format: in vivo, Rats of the SD series; details: D-galactosamine hydrochloride 250 mg/Kg
Description: The effect on the liver dysfunction (hepatitis) induced by D-galactosamine by administration into the abdominal cavity was examined.
(§1) Rats of the SD series having a body weight of about 250 g were used as test animals. D-Galactosamine hydrochloride (250 mg/Kg each time) and the test compound (50 mg/Kg each time) were administered into the abdominal cavity according to the schedule described below. After termination of the experiment, blood was collected from the test animals, and the GOT value, GPT value and alkali phosphatase value, which are indicators of the degree of the liver dysfunction, were measured.
(§2) The test compound was suspended in a 5% aqueous solution of gum arabic and was administered in the form of the suspension. D-Galactosamine hydrochloride was dissolved in distilled water, the pH value of the solution was adjusted to 7 by potassium hydroxide and the resulting solution was administered. The test compound was administered to a group consisting of 9 rats, and in place of the test compound, a 5% aqueous solution of gum arabic free of the test compound was administered to a control group consisting of 14 rats. Neither the test compound nor D-galactosamine hydrochloride was administered to a normal group consisting of 9 rats.
(§3) Administration Schedule: [formula]

[2] = system: liver dysfunction (hepatitis) induced by D-galactosamine; assay: Experiment II: effect on the liver dysfunction (hepatitis) induced by D-galactosamine, oral administration; format: in vivo, Rats of the SD series; details: Tables 3 and 4, 400 mg/Kg each time, D-galactosamine hydrochloride 200 mg/Kg hypodermically; for GPT Value: normal 34.8 ± 1.9, control 395.7 ± 49.3; for Alkali Phosphatase Value: normal 49.3 ± 4.4, control 67.4 ± 2.9; for GOT Value: normal 129.4 ± 12.6, control 573.7 ± 59.1
Description: as §1, §2
The effect on the liver dysfunction (hepatitis) induced by D-galactosamine by oral administration was examined.
D-galactosamine hydrochloride (200 mg/Kg each time) was hypodermically administered, and the test compound (400 mg/Kg each time) was orally administered. The test compound-administered group consisted of 9 rats, the control group consisted of 14 rats, and the normal group consisted of 8 rats. The administration schedule was as follows.
as §3
Other test conditions were the same as in Experiment I.

[3] = system: rats of the Wistar series; details: rat, in vivo, po, 4000 mg/kg
Description: The compounds C, D, I and M were separately suspended in 5% aqueous solutions of gum arabic and the test composition were orally administered to rats of the Wistar series at a dose of 4000 mg/Kg.

[4] = Table 1, 50 mg/Kg each time, normal 32.3 ± 3.3, control 94.2 ± 6.9
[5] = Table 1, 50 mg/Kg each time, normal 33.1 ± 2.3, control 509 ± 94
[6] = Table 1, 50 mg/Kg each time, normal 127.0 ± 6.1, control 751 ± 130
[7] = Table 2, 50 mg/Kg each time, normal 39.0 ± 2.4, control 992.3 ± 121.2
[8] = Table 2, 50 mg/Kg each time, normal 48.9 ± 4.7, control 125.7 ± 4.9
[9] = Table 2, 50 mg/Kg each time, normal 129.9 ± 10.1, control 1081.8 ± 90.3

## CC(C)=CCC/C(C)=C/CC/C(C)=C/CCC(C)CC(=O)N(C)C (stereo not shown) [compound F, (E,E)-N,N-dimethyl-3,7,11,15-tetramethyl-6,10,14-hexadecatrienamide]
[1]; [4]
  Alkali Phosphatase Value: 28.0 ± 2.4 KA unit
[1]; [5]
  GPT Value: 90 ± 44 carmen unit
[1]; [6]
  GOT Value: 400 ± 75 carmen unit

## CC(C)=CCC/C(C)=C/CC/C(C)=C/CCC(C)CC(=O)N1CCN(CCO)CC1 (stereo not shown) [compound G, 1-[(E,E)-3,7,11,15-tetramethyl-6,10,14-hexadecatrienoyl]-4-(2-hydroxyethyl)piperazine]
[1]; [4]
  Alkali Phosphatase Value: 29.6 ± 2.3 KA unit
[1]; [5]
  GPT Value: 84 ± 17 carmen unit
[1]; [6]
  GOT Value: 414 ± 49 carmen unit

## CC(C)=CCC/C(C)=C/CC/C(C)=C/CCC(C)CC(N)=O (stereo not shown) [compound E, (E,E)-3,7,11,15-tetramethyl-6,10,14-hexadecatrienamide]
[1]; [4]
  Alkali Phosphatase Value: 32.1 ± 2.6 KA unit
[1]; [5]
  GPT Value: 64 ± 15 carmen unit
[1]; [6]
  GOT Value: 425 ± 24 carmen unit

## CC(C)=CCCC(C)=CCCC(C)=CCCC(C)=CC(=O)N1CCOCC1 [compound M, 4-(3,7,11,15-tetramethyl-2,6,10,14-hexadecatetraenoyl)morpholine]
[2]
  GPT Value: 58.9 ± 7.3 carmen unit
  Alkali Phosphatase Value: 59.4 ± 4.9 KA unit
  GOT Value: 178.4 ± 10.3 carmen unit
[3]
  death of rats: None of the rats died

## CC(C)=CCC/C(C)=C/CC/C(C)=C/CCC(C)CC(=O)N1CCOCC1 (stereo not shown) [compound D, 4-[(E,E)-3,7,11,15-tetramethyl-6,10,14-hexadecatrienoyl]morpholine]
[1]; [4]
  Alkali Phosphatase Value: 28.5 ± 2.0 KA unit
[1]; [5]
  GPT Value: 94 ± 39 carmen unit
[1]; [6]
  GOT Value: 430 ± 58 carmen unit
[2]
  GPT Value: 58.8 ± 5.5 carmen unit
  Alkali Phosphatase Value: 53.1 ± 5.6 KA unit
  GOT Value: 84.8 ± 8.9 carmen unit
[3]
  death of rats: None of the rats died

## CC(=CC(=O)N1CCOCC1)CCCC(C)CCCC(C)CCCC(C)C (stereo not shown) [compound I, 4-(3,7,11,15-tetramethyl-2-hexadecaenoyl)morpholine]
[1]; [7]
  GPT Value: 135.3 ± 46.4 carmen unit
[1]; [8]
  Alkali Phosphatase Value: 35.4 ± 5.2 KA unit
[1]; [9]
  GOT Value: 659.3 ± 72.5 carmen unit
[2]
  GPT Value: 154.9 ± 21.5 carmen unit
  Alkali Phosphatase Value: 44.31 ± 3.1 KA unit
  GOT Value: 284.9 ± 36.4 carmen unit
[3]
  death of rats: None of the rats died

## CC(C)=CCCC(C)=CCCC(C)=CCCC(C)=CC(=O)N(C)C [compound K, N,N-dimethyl-3,7,11,15-tetramethyl-2,6,10,14-hexadecatetraenamide]
[1]; [7]
  GPT Value: 193.8 ± 38.1 carmen unit
[1]; [8]
  Alkali Phosphatase Value: 45.2 ± 1.8 KA unit
[1]; [9]
  GOT Value: 586.0 ± 56.5 carmen unit

## CC(C)CCCC(C)CCCC(C)CCCC(C)CC(=O)N1CCOCC1 (stereo not shown) [compound C, 4-(3,7,11,15-tetramethylhexadecanoyl)morpholine]
[1]; [4]
  Alkali Phosphatase Value: 23.5 ± 1.8 KA unit
[1]; [5]
  GPT Value: 40 ± 13 carmen unit
[1]; [6]
  GOT Value: 352 ± 34 carmen unit
[2]
  GPT Value: 122.0 ± 16.1 carmen unit
  Alkali Phosphatase Value: 46.7 ± 4.0 KA unit
  GOT Value: 231.1 ± 26.4 carmen unit
[3]
  death of rats: None of the rats died

## CC(C)=CCC/C(C)=C/CCC(C)CC(=O)N1CCOCC1 (stereo not shown) [compound B, 4-[(E)-3,7,11-trimethyl-6,10-dodecadienoyl]morpholine]
[1]; [4]
  Alkali Phosphatase Value: 40.2 ± 2.4 KA unit
[1]; [5]
  GPT Value: 50.4 ± 16 carmen unit
[1]; [6]
  GOT Value: 316 ± 27 carmen unit
[2]
  GPT Value: 67.4 ± 7.3 carmen unit
  Alkali Phosphatase Value: 62.9 ± 4.9 KA unit
  GOT Value: 233.3 ± 22.2 carmen unit

## CC(=CC(=O)N1CCOCC1)CCCC(C)CCCC(C)C (stereo not shown) [compound H, 4-(3,7,11-trimethyl-2-dodecaenoyl)morpholine]
[1]; [7]
  GPT Value: 511.3 ± 173.7 carmen unit
[1]; [8]
  Alkali Phosphatase Value: 49.0 ± 1.9 KA unit
[1]; [9]
  GOT Value: 732.1 ± 147.3 carmen unit

## CC(C)=CCCC(C)=CCCC(C)=CCCC(C)=CC(=O)N1CCN(CCO)CC1 [compound L, 1-(3,7,11,15-tetramethyl-2,6,10,14-hexadecatetraenoyl)-4-(2-hydroxyethyl)piperazine]
[1]; [7]
  GPT Value: 138.1 ± 16.9 carmen unit
[1]; [8]
  Alkali Phosphatase Value: 42.8 ± 1.8 KA unit
[1]; [9]
  GOT Value: 451.7 ± 37.9 carmen unit

## CC(C)CCCC(C)CCCC(C)CC(=O)N1CCOCC1 (stereo not shown) [compound A, 4-(3,7,11-trimethyldodecanoyl)morpholine]
[1]; [4]
  Alkali Phosphatase Value: 31.9 ± 1.8 KA unit
[1]; [5]
  GPT Value: 46.8 ± 11 carmen unit
[1]; [6]
  GOT Value: 257.4 ± 31 carmen unit
[2]
  GPT Value: 62.1 ± 10.7 carmen unit
  Alkali Phosphatase Value: 64.1 ± 4.6 KA unit
  GOT Value: 193.0 ± 18.5 carmen unit

## CC(C)=CCCC(C)=CCCC(C)=CCCC(C)=CC(N)=O [compound J, 3,7,11,15-tetramethyl-2,6,10,14-hexadecatetraenamide]
[1]; [7]
  GPT Value: 314.5 ± 65.9 carmen unit
[1]; [8]
  Alkali Phosphatase Value: 49.9 ± 3.0 KA unit
[1]; [9]
  GOT Value: 617.0 ± 50.5 carmen unit

From US4639450A, “Polyprenylcarboxylic acid morpholides and pharmaceutical compositions” (Eisai Co., Ltd., priority 1979, dated 1987)
